Common to all, as to assay: SelectScreen Z-LYTE kinase activity assay (SI Table 6)
What all share (format): biochemical

The target of test [1] is T1, protein kinases of the Z-LYTE panel (Homo sapiens, UniProt O00418).
T1 sequence (O00418 1-725): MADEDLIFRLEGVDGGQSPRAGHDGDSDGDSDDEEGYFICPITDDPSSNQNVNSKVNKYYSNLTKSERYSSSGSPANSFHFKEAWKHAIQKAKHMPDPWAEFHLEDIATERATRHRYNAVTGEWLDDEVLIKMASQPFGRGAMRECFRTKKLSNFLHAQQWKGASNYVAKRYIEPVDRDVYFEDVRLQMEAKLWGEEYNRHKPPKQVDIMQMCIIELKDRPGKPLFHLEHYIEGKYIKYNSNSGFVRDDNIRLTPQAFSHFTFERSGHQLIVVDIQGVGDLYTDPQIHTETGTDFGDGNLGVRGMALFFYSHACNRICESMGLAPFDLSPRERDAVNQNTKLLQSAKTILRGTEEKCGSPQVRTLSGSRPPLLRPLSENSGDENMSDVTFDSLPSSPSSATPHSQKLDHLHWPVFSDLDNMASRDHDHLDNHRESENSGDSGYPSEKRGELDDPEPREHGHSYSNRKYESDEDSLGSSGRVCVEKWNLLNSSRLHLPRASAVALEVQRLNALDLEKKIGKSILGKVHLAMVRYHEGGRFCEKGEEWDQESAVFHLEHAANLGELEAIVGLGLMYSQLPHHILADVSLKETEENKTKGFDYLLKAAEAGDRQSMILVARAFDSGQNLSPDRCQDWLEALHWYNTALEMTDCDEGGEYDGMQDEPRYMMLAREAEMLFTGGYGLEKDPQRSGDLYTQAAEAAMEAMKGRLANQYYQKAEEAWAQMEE
An outline of the steps: (§1)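 Single-point profiling, 1 μM 1938; LanthaScreen binding, Adapta or Z-LYTE read-outs; 133 protein + 7 lipid kinases.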

Test [2] deals with T2, protein kinases of the Z-LYTE panel (Homo sapiens, UniProt P36888).
T2 sequence (P36888 27-993): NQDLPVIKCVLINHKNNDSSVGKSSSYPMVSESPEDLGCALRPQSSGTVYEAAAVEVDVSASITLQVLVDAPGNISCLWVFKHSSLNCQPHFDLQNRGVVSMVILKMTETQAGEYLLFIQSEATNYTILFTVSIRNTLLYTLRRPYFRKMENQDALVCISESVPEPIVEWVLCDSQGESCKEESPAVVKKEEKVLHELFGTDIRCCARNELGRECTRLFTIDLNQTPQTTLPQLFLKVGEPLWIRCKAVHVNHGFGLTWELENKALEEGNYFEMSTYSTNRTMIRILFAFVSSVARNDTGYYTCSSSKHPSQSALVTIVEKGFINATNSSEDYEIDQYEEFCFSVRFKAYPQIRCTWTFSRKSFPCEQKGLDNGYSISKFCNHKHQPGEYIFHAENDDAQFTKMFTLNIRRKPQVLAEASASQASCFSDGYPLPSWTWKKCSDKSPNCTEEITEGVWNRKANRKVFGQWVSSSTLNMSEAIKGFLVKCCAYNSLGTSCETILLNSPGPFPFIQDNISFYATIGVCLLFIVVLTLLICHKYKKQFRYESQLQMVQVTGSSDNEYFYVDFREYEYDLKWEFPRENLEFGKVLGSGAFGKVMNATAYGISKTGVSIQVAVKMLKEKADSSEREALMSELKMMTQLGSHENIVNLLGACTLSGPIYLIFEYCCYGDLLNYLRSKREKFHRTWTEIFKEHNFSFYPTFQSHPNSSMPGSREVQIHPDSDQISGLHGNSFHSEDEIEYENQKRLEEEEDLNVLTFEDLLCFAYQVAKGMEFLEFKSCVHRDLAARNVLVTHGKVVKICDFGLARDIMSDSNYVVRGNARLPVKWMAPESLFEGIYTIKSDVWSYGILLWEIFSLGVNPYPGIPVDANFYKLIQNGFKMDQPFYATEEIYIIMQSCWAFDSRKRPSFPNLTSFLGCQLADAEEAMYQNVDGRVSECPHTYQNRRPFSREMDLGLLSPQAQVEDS
In a few lines: as §1

Test [3] has as its target protein kinases of the Z-LYTE panel (Homo sapiens, UniProt P23458). An outline of the steps:
as §1

Like-named read-outs stand apart in the source and are kept apart here.

Chain of protein kinases of the Z-LYTE panel (Homo sapiens, UniProt P23458) (P23458 whole entry): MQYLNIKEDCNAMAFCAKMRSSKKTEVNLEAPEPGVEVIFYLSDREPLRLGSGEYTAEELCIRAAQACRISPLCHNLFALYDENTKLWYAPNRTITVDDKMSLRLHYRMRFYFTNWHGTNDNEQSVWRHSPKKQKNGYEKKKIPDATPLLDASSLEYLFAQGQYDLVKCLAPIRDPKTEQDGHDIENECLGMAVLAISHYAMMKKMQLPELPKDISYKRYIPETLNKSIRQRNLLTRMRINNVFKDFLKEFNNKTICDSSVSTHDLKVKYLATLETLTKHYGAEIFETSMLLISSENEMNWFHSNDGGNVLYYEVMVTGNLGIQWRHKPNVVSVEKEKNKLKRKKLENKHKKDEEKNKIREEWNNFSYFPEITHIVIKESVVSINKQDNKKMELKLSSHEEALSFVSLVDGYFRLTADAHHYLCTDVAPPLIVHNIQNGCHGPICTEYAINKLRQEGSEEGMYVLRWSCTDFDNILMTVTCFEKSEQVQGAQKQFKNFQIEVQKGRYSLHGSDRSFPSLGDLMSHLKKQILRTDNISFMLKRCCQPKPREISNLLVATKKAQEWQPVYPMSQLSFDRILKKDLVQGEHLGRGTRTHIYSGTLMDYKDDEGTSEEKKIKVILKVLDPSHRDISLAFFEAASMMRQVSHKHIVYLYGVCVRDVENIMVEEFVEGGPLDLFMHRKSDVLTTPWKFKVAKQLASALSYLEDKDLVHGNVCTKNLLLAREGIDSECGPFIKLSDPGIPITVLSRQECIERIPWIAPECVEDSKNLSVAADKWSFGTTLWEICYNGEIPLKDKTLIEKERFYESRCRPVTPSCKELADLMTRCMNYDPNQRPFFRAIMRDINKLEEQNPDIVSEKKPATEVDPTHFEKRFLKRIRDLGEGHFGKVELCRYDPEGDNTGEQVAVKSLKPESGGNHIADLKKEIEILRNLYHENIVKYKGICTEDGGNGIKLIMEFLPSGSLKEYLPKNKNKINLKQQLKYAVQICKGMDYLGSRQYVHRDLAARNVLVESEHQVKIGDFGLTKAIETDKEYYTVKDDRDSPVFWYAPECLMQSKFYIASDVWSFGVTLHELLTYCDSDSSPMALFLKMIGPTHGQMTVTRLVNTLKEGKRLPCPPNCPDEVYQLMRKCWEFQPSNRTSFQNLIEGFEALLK

As to `CCN1CCN(c2ccc(Nc3cc(Nc4cccc5c4N(C(C)=O)CC5)ccn3)cc2)CC1` [Compound 1938], the inhibition (as a rule, the change of the read-out against control, counted positive when it falls) at 1 µM in test [1] (read-out: % Inhibition Point 1) was -0.0213%; in test [1] (read-out: % Inhibition Point 2), 0.399%; in test [1] (read-out: % Inhibition mean), 0.189%; in test [2] (read-out: % Inhibition Point 1), 19%; in test [2] (read-out: % Inhibition Point 2), 20%; in test [2] (read-out: % Inhibition mean) it was 19%. The inhibition at 1 µM in test [3] (read-out: % Inhibition Point 1), in test [3] (read-out: % Inhibition Point 2) and in test [3] (read-out: % Inhibition mean) was -2% in each case.

(Values after publication PMC7614683, “A small molecule PI3Kα activator for cardioprotection and neuroregeneration” (Nature, 2023).)
